Reference: article PMC8161026, “Synthesis and Anticancer Activity Evaluation of 5-[2-Chloro-3-(4-nitrophenyl)-2-propenylidene]-4-thiazolidinones” (Molecules, 2021)

How the values were obtained:
NCI-H226 = experiment: NCI DTP 60 cell line screen, SRB; conditions: for GI50 / CC50: Homo sapiens, NCI-H226, 48 h; for CC50: read-out: LC50; for TGI: NCI-H226 (Non-Small Cell Lung Cancer), 48 h, SRB
U251 [1] = conditions: U251 (CNS Cancer), 48 h, SRB
SF-539 = experiment: NCI DTP 60 cell line screen, SRB; conditions: for GI50 / CC50: Homo sapiens, SF-539, 48 h; for CC50: read-out: LC50; for TGI: SF-539 (CNS Cancer), 48 h, SRB
HCC-2998 = experiment: NCI DTP 60 cell line screen, SRB; conditions: for TGI: HCC-2998 (Colon Cancer), 48 h, SRB; for GI50 / CC50: Homo sapiens, HCC 2998, 48 h; for CC50: read-out: LC50
HOP-92 = experiment: NCI DTP 60 cell line screen, SRB; conditions: for TGI: HOP-92 (Non-Small Cell Lung Cancer), 48 h, SRB; for GI50 / CC50: Homo sapiens, HOP-92, 48 h; for CC50: read-out: LC50
SK-MEL-5 = experiment: NCI DTP 60 cell line screen, SRB; conditions: for GI50 / CC50: Homo sapiens, SK-MEL-5, 48 h; for CC50: read-out: LC50; for TGI: SK-MEL-5 (Melanoma), 48 h, SRB
NCI-H460 = NCI-H460 (Non-Small Cell Lung Cancer), 48 h, SRB
LOX IMVI = LOX IMVI (Melanoma), 48 h, SRB
U251 [2] = experiment: cells; conditions: Homo sapiens, U-251, 48 h; for CC50: read-out: LC50
MOLT-4 = conditions: for TGI: MOLT-4 (Leukemia), 48 h, SRB; for TI (Therapeutic Index): GI50 (normal blood lymphocyte)/GI50 (MOLT-4)
RXF 393 [3] = conditions: RXF 393 (Renal Cancer), 48 h, SRB
RXF 393 [4] = experiment: cells; conditions: Homo sapiens, RXF 393, 48 h; for CC50: read-out: LC50
[5] = system: breast cancer lines MCF-7 and MDA-MB-231; experiment: MTT cell viability assay, both breast cancer lines; type: cell-based; conditions: Homo sapiens; MCF-7 and MDA-MB-231, MTT; read-out: GI50 level
Experimental: In the second stage of the research, Ciminalum-thiazolidinone hybrids were investigated for antitumor activity on the lines of gastric cancer (AGS), human colon cancer (DLD-1), and breast cancers (MCF-7 and MDA-MB-231). The study was performed in the MTT assay according to the method described previously. The studied cancer line was sensitive to the action of the studied compounds that inhibited its growth in micromolar ranges of GI50. The hit compounds that inhibited the growth of all four cancer lines with the lowest GI50 values were [5-[2-chloro-3-(4-nitrophenyl)prop-2-enylidene]-rhodanines 2c, 2d, 2h, and 2i (Table 4).

MDA-MB-468 = experiment: NCI DTP 60 cell line screen, SRB

| Compound | GI50 (NCI-H226) [µM] | CC50 (NCI-H226) [µM] | TGI (NCI-H226) [µM] | TGI (U251 [1]) [µM] | GI50 (SF-539) [µM] | CC50 (SF-539) [µM] | TGI (SF-539) [µM] | TGI (HCC-2998) [µM] | TGI (HOP-92) [µM] | GI50 (HOP-92) [µM] | CC50 (HOP-92) [µM] | GI50 (SK-MEL-5) [µM] | CC50 (SK-MEL-5) [µM] | TGI (SK-MEL-5) [µM] | TGI (NCI-H460) [µM] | TGI (LOX IMVI) [µM] | GI50 (U251 [2]) [µM] | CC50 (U251 [2]) [µM] | TGI (MOLT-4) [µM] | TI (Therapeutic Index) (MOLT-4) | also measured |
| --- | --- | --- | --- | --- | --- | --- | --- | --- | --- | --- | --- | --- | --- | --- | --- | --- | --- | --- | --- | --- | --- |
| O=C1NC(=S)S/C1=C\C(Cl)=C\c1ccc([N+](=O)[O-])cc1 [Compound 2b, 5-[(Z,2Z)-2-Chloro-3-(4-nitrophenyl)-2-propenylidene]-2-thioxo-4-thiazolidinone] | 6.28 | > 50 | 20.0 | 9.73 | 9.39 | > 50 | 23.1 | 11.7 | > 50 | 8.48 | > 50 | 3.82 | 24 | 10.6 | 18.6 | 15.4 | 3.09 | 22.1 | 14.2 |  | GI50 (HCC-2998): 5.43 µM; CC50 (HCC-2998): 25 µM |
| O=C1/C(=C/C(Cl)=C/c2ccc([N+](=O)[O-])cc2)SC(=S)N1/N=C\C(Cl)=C\c1ccc([N+](=O)[O-])cc1 [Compound 2c, 5-[(Z,2Z)-2-Chloro-3-(4-nitrophenyl)-2-propenylidene]-3-[(Z,2Z)-2-chloro-3-(4-nitrophenyl)-2-propenylideneamino]-2-thioxo-4-thiazolidinone] | 12 | 84.2 | 31.8 | 24.5 | 25.9 | > 100 | 57.4 |  |  |  |  | 19.4 | 75.6 | 38.3 | 32.3 | 28.8 | 8.03 | 65.8 | 8.95 |  |  |
| O=C1/C(=C/C(Cl)=C/c2ccc([N+](=O)[O-])cc2)SC(=S)N1c1ccc(O)cc1 [Compound 2f, 5-[(Z,2Z)-2-Chloro-3-(4-nitrophenyl)-2-propenylidene]-3-(4-hydroxyphenyl)-2-thioxo-4-thiazolidinone] |  |  |  | 3.06 | 0.0252 | 28.1 | 0.242 |  | 39.4 | 8.53 | > 100 | < 0.01 | 3.41 | < 0.01 | > 100 | 3.70 | 0.368 | 38.9 | > 100 | >257.07 |  |
| O=C(O)CCN1C(=O)/C(=C/C(Cl)=C/c2ccc([N+](=O)[O-])cc2)SC1=S [Compound 2h, 3-{5-[(Z,2Z)-2-Chloro-3-(4-nitrophenyl)-2-propenylidene]-4-oxo-2-thioxothiazolidin-3-yl}propanoic acid] |  |  |  | 2.00 | < 0.01 | 25.8 | 0.267 |  | 18.3 | 4.81 | 50.7 | 0.0193 | 1.88 | 0.0849 | 3.32 | 0.515 | 0.149 | > 100 | 19.7 | 3408.75 | TGI (RXF 393 [3]): 0.341 µM; GI50 (RXF 393 [4]): 0.105 µM; CC50 (RXF 393 [4]): 1.73 µM; GI50 [5]: 0.95 to 1.74 µM |
| O=C(O)C(Cc1ccccc1)N1C(=O)/C(=C/C(Cl)=C/c2ccc([N+](=O)[O-])cc2)SC1=S (stereo not shown) [Compound 2j, 2-{5-[(Z,2Z)-2-Chloro-3-(4-nitrophenyl)-2-propenylidene]-4-oxo-2-thioxothiazolidin-3-yl}-3-phenylpropanoic acid] | 1.58 | 6.76 | 3.27 | 3.52 | 2.74 | > 100 | > 100 | 3.50 | 5.71 | 2.36 | > 100 | 1.68 | 5.6 | 3.06 | > 100 | 3.26 | 1.72 | 7.21 | > 100 | 15.59 | TGI (RXF 393 [3]): 3.02 µM; GI50 (MDA-MB-468; Homo sapiens, MDA-MB-468, 48 h): 1.39 µM; CC50 (MDA-MB-468; Homo sapiens, MDA-MB-468, 48 h, read-out: LC50): 7.71 µM; TGI (MDA-MB-468; MDA-MB-468 (Breast Cancer), 48 h, SRB): 3.28 µM; GI50 (HCC-2998): 1.96 µM; CC50 (HCC-2998): 6.27 µM; GI50 (RXF 393 [4]): 1.54 µM; CC50 (RXF 393 [4]): 5.93 µM |
